The source of these data is patent publication US20260240740A1, “MULTI-PHOTOPROTECTIVE COMPOUNDS AND USES THEREOF” (SKINOSIVE, priority 2022, published 2026).

A short description of data set [1]: Photostability after UV irradiation, absorbance spectra. Type of data set: physicochemical. Particulars: for Absorbance peak, Without UV irradiation / Absorbance peak, Irradiation 2000 J/dm2 / Absorbance peak, Irradiation 4000 J/dm2 / λmax after irradiation / Effect of irradiation on UV absorbance profile: Ethanol; for Absorbance peak, Without UV irradiation / Absorbance peak, Irradiation 2000 J/dm2 / Absorbance peak, Irradiation 4000 J/dm2: 1 mM; for Absorbance peak, Irradiation 2000 J/dm2: 1 h; for λmax after irradiation / Effect of irradiation on UV absorbance profile: 2000 or 4000 J/dm2 for 1 or 2 hours; for Effect of irradiation on UV absorbance profile: UVB and UVA range. The procedure:
(§1) Compound #2 (OOD), Univul A plus (DHHB), Octocrylene (OCR), and Univul A plus (DHHB)+Octocrylene (OCR) were dissolved in Ethanol at 1 mM and were irradiated at 2000 and 4000 J/dm2 for 1 h and 2 h in a 24-well plate, respectively, in 2 replicates (1 replicate for HPLC and 1 replicate for absorbance spectra).
(§2) Compound #4 (OHD), Univul A plus (DHHB), Octocrylene (OCR), and Univul A plus (DHHB)+Octocrylene (OCR) were dissolved in Ethanol at 1 mM and were irradiated at 2000 and 4000 J/dm2 for 1 h and 2 h in a 24-well plate, respectively, in 2 replicates (1 replicate for HPLC and 1 replicate for absorbance spectra).
(§3) Compound #5 (BOO), Tinosorb S (BEMT), and Octocrylene (OCR) were dissolved in Dubdis at 2 mM and were irradiated at 4000 J/dm2 for 2 h in a 24-well plate, respectively, in 2 replicates (1 replicate for HPLC and 1 replicate for absorbance spectra).

Data set [2] is described as follows: Photostability after UV irradiation, HPLC. Format: physicochemical. The procedure: as §1, §2, §3
In the next data set the test system is pig skin. Kind of data set: UV protection ex vivo on pig skin by autofluorescence quenching. The note with it: Dottisol. The procedure: UV Protection Performance of Compound #2 (OOD) UVB and UVA protections have been assessed ex vivo on pig skin by measuring the autofluorescence quenching. OOD (Compound #2), the mix of DHHB+OCR were solubilized at the same molar concentration in Dottisol (isosorbide dimethyl ether), covered 6.25 cm2 skin square and incubated 20 min or 2 hours at room temperatures, and then 7 mm skin punches were cut and placed in a black 96-well plate. UVB and UVA protections were measured after respectively an excitation at 300 nm and 355 nm and a fluorescence emission was read at 460 nm. DMSO was added on the pig skin before the reading of the residual fluorescence.
UVB and UVA protections have been assessed ex vivo on pig skin by measuring the autofluorescence quenching. BOO (Compound #5) and the mix of BEMT+OCR were solubilized at the same molar concentration in Dottisol (isosorbide dimethyl ether), covered 6.25 cm^2 skin square and incubated 4 hours at 34° C., washed or not with 10 mL Ethanol for 5 min, and then 7 mm diameter skin punches were cut and placed in a black 96-well plate. UVB and UVA protections were measured after respectively an excitation at 300 nm and 355 nm and a fluorescence emission was read at 460 nm.
UVB protection has been assessed ex vivo on pig skin by measuring the autofluorescence quenching. BOO (Compound #5), BOO-OM (Compound #6) and the mix of BEMT+OCR were solubilized at the same molar concentration in DMDA (dimethyl capramide), covered 6.25 cm2 skin square and incubated 2 hours at 34° C., washed or not with 10 mL Ethanol for 5 min, and then 7 mm diameter skin punches were cut and placed in a black 96-well plate. UVB protection was measured after respectively an excitation at 300 nm and a fluorescence emission was read at 460 nm.

Data set [3] can be described thus: UV absorbance profile: λmax in solvents, FLUOstar plate reader. Format: physicochemical. Particulars: 125 μM. The procedure:
Compound #2 (OOD), Univul A plus (DHHB)+Octocrylene (OCR) were dissolved in a solvent at the same concentration (125 μM).
Compound #4 (OHD), Univul A plus (DHHB)+Octocrylene (OCR) were dissolved in a solvent at the same concentration (125 μM).
Compound #5 (BOO) and BEMT (6,6′-(6-(4-methoxyphenyl)-1,3,5-triazine-2,4-diyl)bis(3-((2-ethylhexyl)oxy)phenol)=Tinosorb S)+Octocrylene (OCR) were dissolved in a solvent at the same concentration (50 μM).
UV Absorbance Profil of Compound #6 (BOO-OM) Compound #6 (BOO-OM) and BEMT (6,6′-(6-(4-methoxyphenyl)-1,3,5-triazine-2,4-diyl)bis(3-((2-ethylhexyl)oxy)phenol)=Tinosorb S)+Octocrylene (OCR) were dissolved in a solvent at the same concentration (50 μM).

Data set [4] can be described thus: Solubility in sunscreen solvents. Format: physicochemical. The note with it: 50° C. The procedure:
Compound #2 (OOD) and a sunscreen solvent were weighed in a Becher. The Becher was placed on a magnetic stir plate, heated up to 50° C., and the solution was vigorously mixed with a bar magnet.
Compound #4 (OHD) and a sunscreen solvent were weighed in a Becher. The Becher was placed on a magnetic stir plate, heated up to 50° C., and the solution was vigorously mixed with a bar magnet.
Compound #5 (BOO) and a sunscreen solvent were weighed in a Becher. The Becher was placed on a magnetic stir plate, heated up to 50° C., and the solution was vigorously mixed with a bar magnet.
Compound #6 (BOO-OM) and a sunscreen solvent were weighed in a Becher. The Becher was placed on a magnetic stir plate, heated up to 50° C., and the solution was vigorously mixed with a bar magnet.

[5] abbreviates: pig skin autofluorescence after 2 h of incubation, Mean +/− SD, N = 3.
Setting [6] is: Cetiol HE (PEG-7 Glyceryl Cocoate).

Molecules are shown by their SMILES. Several values for one entry are separate records, joined by “and”; a condition that tells them apart may be missing. Equal entries are not always repeated.

Take `CCCCC(CC)COc1ccc(-c2nc(-c3ccc(OC)cc3)nc(-c3ccc(OCC(CC)CCCC)cc3O)n2)c(O)c1` (centres unmarked) [BEMT, 6,6′-(6-(4-methoxyphenyl)-1,3,5-triazine-2,4-diyl)bis(3-((2-ethylhexyl)oxy)phenol), reference compound]: in data set [1] (Dubdis, 2 mM), the “Absorbance peak, Without UV irradiation, first or only peak” value is reported as 310 nm and the “Absorbance peak, Without UV irradiation, second peak” value is reported as 351 nm. In data set [1] (Dubdis, 2 mM, 2 h), the “Absorbance peak, Irradiation 4000 J/dm2, first or only peak” value stood at 310 nm and the “Absorbance peak, Irradiation 4000 J/dm2, second peak” value is reported as 351 nm. Further, the “degradation observed by HPLC after irradiation” value (“degradation observed by HPLC” below) in data set [2] (Dubdis) is “No degradation”.

Regarding `CCN(CC)c1ccc(C(=O)c2ccccc2C(=O)NCCCCCCCCOC(=O)C(C#N)=C(c2ccccc2)c2ccccc2)c(O)c1` [Compound #2, 8-[[2-[4-(diethylamino)-2-hydroxy-benzoyl]benzoyl]amino]octyl 2-cyano-3,3-diphenyl-prop-2-enoate], the “UVA and UVB protections of the pig skin compared to the mix OCR+DHHB” value with pig skin (2 h incubation) is recorded as “similar”. In the data set on pig skin (setting [5]), the “UVA Fluorescence (Ex355/Em460)” value was 2881 +/− 617 and the “UVB Fluorescence (Ex300/Em460)” value is listed as 15248 +/− 3227. In data set [1], the “Absorbance peak, Without UV irradiation” value is recorded as 357 nm; the “Absorbance peak, Irradiation 2000 J/dm2” value turned out to be 357 nm; the λmax after irradiation was 357 nm; the “Effect of irradiation on UV absorbance profile” value is listed as “did not modify”. In data set [1] (2 h), the “Absorbance peak, Irradiation 4000 J/dm2” value is 357 nm. For the same molecule, in data set [2] (Ethanol), the “degradation observed by HPLC” value is “No degradation”; the “purity by HPLC after irradiation” value is 98.80%; the “purity by HPLC, non-irradiated” value turned out to be 99.17%. Further, in data set [3] (Cetiol B (Dibutyl Adipate)), the λmax was determined as 355 nm. The molecule further registered a λmax in data set [3] (setting [6]) of 355 nm. This molecule came in with a λmax in data set [3] (DMSO) of 356 nm. Besides, the λmax in data set [3] (Dubdis (diisopropyl sebacate), listed as OOD) was 355 nm and 356 nm. This molecule also yielded a λmax in data set [3] (Ethanol) of 356 nm. Besides, in data set [4] (Cetiol B (Dibutyl Adipate)), the soluble at ratio was 1/1. In addition, the soluble at ratio result in data set [4] (setting [6]) is “⅕”. In addition, in data set [4] (Dubdis (Diisopropyl sebacate)), the soluble at ratio is 1/1.

Regarding `CCN(CC)c1ccc(C(=O)c2ccccc2C(=O)NCCCCCCOC(=O)C(C#N)=C(c2ccccc2)c2ccccc2)c(O)c1` [Compound #4, 6-[[2-[4-(diethylamino)-2-hydroxy-benzoyl]benzoyl]amino]hexyl 2-cyano-3,3-diphenyl-prop-2-enoate], in data set [1], the “Absorbance peak, Without UV irradiation” value came to 358 nm; the “Absorbance peak, Irradiation 2000 J/dm2” value is recorded as 357 nm; the λmax after irradiation amounted to 357 nm; the “Effect of irradiation on UV absorbance profile” value was “did not modify”. Besides, the “Absorbance peak, Irradiation 4000 J/dm2” value in data set [1] (2 h) was found to be 357 nm. In data set [2] (Ethanol), the “degradation observed by HPLC” value is “No degradation”; the “purity by HPLC after irradiation” value turned out to be 97.84%; the “purity by HPLC, non-irradiated” value is given as 98.13%. In data set [3] (DMSO), this molecule had a λmax of 356 nm. Further, the λmax in data set [3] (Ethanol) came to 356 nm. Besides, in data set [4] (Cetiol B (Dibutyl Adipate)), the soluble at ratio entry was “⅓”. Further, the soluble at ratio in data set [4] (Dimethyl capramide (Spectrasolv DMDA)) is 1/1.

With `CCCCCCOC(=O)c1ccccc1C(=O)c1ccc(N(CC)CC)cc1O` [DHHB, diethylamino hydroxybenzoyl hexyl benzoate, reference compound], in data set [1], the “Absorbance peak, Without UV irradiation” value is on record as 357 nm and the “Absorbance peak, Irradiation 2000 J/dm2” value is on record as 357 nm. For the same molecule, the “Absorbance peak, Irradiation 4000 J/dm2” value in data set [1] (2 h) was determined as 357 nm. The “degradation observed by HPLC” value in data set [2] (Ethanol) is listed as “No degradation”.

For `CCCCC(CC)COC(=O)C(C#N)=C(c1ccccc1)c1ccccc1` (centres unmarked) [OCR, 2-ethylhexyl 2 cyano-3,3-diphenylacrylate, reference compound], in data set [1] (Dubdis, 2 mM), the “Absorbance peak, Without UV irradiation, first or only peak” value was determined as 305 nm. Moreover, the “Absorbance peak, Irradiation 4000 J/dm2, first or only peak” value in data set [1] (Dubdis, 2 mM, 2 h) is 309 nm. Moreover, in data set [1], the “Absorbance peak, Without UV irradiation” value came to 304 nm and the “Absorbance peak, Irradiation 2000 J/dm2” value is 304 nm. In data set [1] (2 h), the “Absorbance peak, Irradiation 4000 J/dm2” value turned out to be 304 nm. Moreover, the “degradation observed by HPLC” value in data set [2] (Dubdis) is given as “No degradation”. Moreover, in data set [2] (Ethanol), the “degradation observed by HPLC” value is given as “No degradation”.
